The values that follow are results of earlier work, collected in patent US20100317640A1, “ANTIMICROBIAL ZINC PYRITHIONE COMPOSITION AND METHOD” (MICROBAN PRODUCTS COMPANY, priority 2009, published 2010).

The conditions of this series: neutral pH.

For the substance zinc pyrithione, the solubility in water was 8 ppm.
